Reference: patent US20260224577A1, “METHODS OF TREATING HEART FAILURE WITH VIBEGRON” (SUMITOMO PHARMA CO., LTD., priority 2021, published 2026)

What was measured:
[1] = Plasma titer after 4 weeks of treatment in post-MI mice; type: in vivo, mouse; conditions: after 4 weeks of treatment (week 6), FIG. 6
From the text: (§1) Myocardial infarction was induced in 10-12 week C57B/6 wild-type mice and after 2 weeks echo cardiograms were used to assess the MI severity in each mouse. Mice were randomized for treatment based on similarity and severity of the induced infarct. The mice were started with either vibegron or vehicle (1-3 doses) administered by continuous infusion using 2 week minipumps (Azlet Corp.) that were filled with the appropriate dose and implanted subcutaneously on the back of each animal in the region of the scapula. The minipumps were replaced with new minipumps in the same location at the 2 week time point and dosed for 4 weeks in total. Cardiac function was assessed by echocardiography (Echo) at 0, 2, 4, and 6 weeks. Some mice were subjected to terminal catheterization to measure hemodynamic pressures and adrenergic responsiveness. At the end of the 4 week treatment period (i.e., 6 weeks after MI was induced), cardiac function was measured, mice were sacrificed for histology of the heart, and terminal blood was collected to confirm the serum concentration of vibegron.
• 1. Day 0 (after 1-2 weeks acclimation)—pre-surgery Echo • 2. Perform LAD Ligation (MI) or Sham procedure • 3. Day 14—Echo and randomly assign groups • 4. Day 14—begin administration of vehicle and drug for 4 weeks • 5. Day 28—Echo (operator blinded to groups)—change pumps for another 2 week dosing • 6. […]

[2] = system: mice with induced myocardial infarction; assay: Post-MI chronic heart failure in mice, heart histology (Mason's trichrome); type: in vivo, mouse; conditions: for Average % Infarcted Myocardium / Average Left Ventricle Lumen Area: Week 6
From the text: as §1
• 1. Day 0 (after 1-2 weeks acclimation)—pre-surgery Echo • 2. Perform LAD Ligation (MI) or Sham procedure • 3. Day 14—Echo and randomly assign groups • 4. Day 14—begin administration of vehicle and drug for 4 weeks • 5. Day 28—Echo (operator blinded to groups)—change pumps for another 2 week dosing • 6. Day 42—Echo (operator blinded to groups) • 7. Day 42—Some were used for hemodynamics and ISO dose response and all animals sacrificed. Some were used for histology and some for RNA/Protein analysis. Blood was also collected at the time of sacrifice to determine serum concentrations.
At the end of the study period, blood samples were processed for subsequent analysis of compound and decided biomarkers. At the end of the study, the heart was either preserved in formalin (for section, and staining) or snap frozen (for isolation of whole heart RNA, DNA and protein) as described above.
Histologies were obtained by sectioning the mouse hearts vertically in such a way that all four chambers were visible upon staining. The area of the left ventricle cavity was measured by staining with Mason's trichrome stain. The darker color indicates healthy myocardium and the lighter color indicates connective tissue, which is the largest component of infarcted myocardium.

[3] = target: T1, β2-adrenergic receptor (Homo sapiens, UniProt P07550); assay: Functional cellular cAMP (HTRF) assay, CHO cells expressing β2-ARs; type: cell-based; conditions: relative to procaterol
T1 construct: expressed in transfected cells; host or cells: CHO
T1 sequence (P07550 whole entry): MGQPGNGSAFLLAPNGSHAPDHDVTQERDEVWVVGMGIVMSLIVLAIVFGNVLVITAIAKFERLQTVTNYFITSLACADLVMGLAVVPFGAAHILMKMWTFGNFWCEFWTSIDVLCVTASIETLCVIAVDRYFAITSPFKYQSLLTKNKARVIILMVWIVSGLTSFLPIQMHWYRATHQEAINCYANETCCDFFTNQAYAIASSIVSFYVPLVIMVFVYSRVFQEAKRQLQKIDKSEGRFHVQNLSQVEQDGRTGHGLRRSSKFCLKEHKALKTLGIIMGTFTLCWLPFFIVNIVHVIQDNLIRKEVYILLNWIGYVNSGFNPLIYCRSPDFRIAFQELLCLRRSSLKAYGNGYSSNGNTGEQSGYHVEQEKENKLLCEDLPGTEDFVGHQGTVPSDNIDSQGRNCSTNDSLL
Procedure: (§2) The potency and maximal effect of vibegron and mirabegron for β3-adrenergic receptors and the selectivity for each […] receptor were determined. Functional cellular assays for vibegron and mirabegron activity were performed using Chinese hamster ovary (CHO) cells expressing β1- or β2-ARs and human embryonic kidney (HEK) 293 cells expressing β3-ARs. Cells were incubated with vibegron, mirabegron, or the appropriate control (isoproterenol for β1 and β3, procaterol for β2). Responses were quantified using homogeneous time-resolved fluorescence of cyclic adenosine monophosphate. Half-maximal effective concentration (EC50) and maximum response (Emax) values were determined by nonlinear least-squares regression analysis.

[4] = target: T2, β3-adrenergic receptor (Homo sapiens, UniProt P13945); assay: Functional cellular cAMP (HTRF) assay, HEK293 cells expressing β3-ARs; type: cell-based
T2 construct: expressed in transfected cells; host or cells: HEK293
T2 sequence (P13945 whole entry): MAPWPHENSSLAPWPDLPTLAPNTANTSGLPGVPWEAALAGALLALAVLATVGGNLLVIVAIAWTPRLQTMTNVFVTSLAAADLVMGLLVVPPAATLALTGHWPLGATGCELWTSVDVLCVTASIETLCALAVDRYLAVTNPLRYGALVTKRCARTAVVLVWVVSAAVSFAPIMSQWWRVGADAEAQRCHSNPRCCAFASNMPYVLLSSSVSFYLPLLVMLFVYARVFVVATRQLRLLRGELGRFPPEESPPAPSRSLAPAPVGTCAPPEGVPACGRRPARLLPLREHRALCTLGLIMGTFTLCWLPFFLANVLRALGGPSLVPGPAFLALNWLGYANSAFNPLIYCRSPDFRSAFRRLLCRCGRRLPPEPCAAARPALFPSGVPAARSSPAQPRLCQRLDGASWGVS
Procedure: as §2

[5] = system: β3-AR over β2-AR and β1-AR; conditions: cell based in vitro assays; cited from earlier work
[6] = target: T3, β1-adrenergic receptor (Homo sapiens, UniProt P08588); assay: Functional cellular cAMP (HTRF) assay, CHO cells expressing β1-ARs; type: cell-based; conditions: relative to isoproterenol
T3 construct: expressed in transfected cells; host or cells: CHO
T3 sequence (P08588 whole entry): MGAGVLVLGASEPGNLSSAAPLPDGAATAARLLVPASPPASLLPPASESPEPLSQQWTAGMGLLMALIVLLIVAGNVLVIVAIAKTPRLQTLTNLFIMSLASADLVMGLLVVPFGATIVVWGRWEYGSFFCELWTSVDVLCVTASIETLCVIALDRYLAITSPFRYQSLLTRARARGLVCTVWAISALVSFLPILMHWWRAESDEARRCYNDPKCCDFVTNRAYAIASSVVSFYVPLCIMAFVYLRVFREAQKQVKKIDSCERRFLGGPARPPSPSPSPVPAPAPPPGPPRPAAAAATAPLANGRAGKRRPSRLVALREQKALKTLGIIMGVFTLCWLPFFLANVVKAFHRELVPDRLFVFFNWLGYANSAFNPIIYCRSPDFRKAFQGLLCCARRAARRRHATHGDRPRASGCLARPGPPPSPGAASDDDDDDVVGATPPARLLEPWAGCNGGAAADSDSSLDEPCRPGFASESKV
Procedure: as §2

O=C(Nc1ccc(C[C@@H]2CC[C@H]([C@H](O)c3ccccc3)N2)cc1)[C@@H]1CCc2nccc(=O)n21 [Vibegron, (6S)—N-[4-[[(2S,5R)-5-[(R)-hydroxy(phenyl)methyl]pyrrolidin-2-yl]methyl]phenyl]-4-oxo-7,8-dihydro-6H-pyrrolo[1,2-a]pyrimidine-6-carboxamide]
Vibegron plasma titer [1]: consistent with the dosing
Amount of healthy myocardium after infarction (trichrome stain) ([2]; MI mice, 4 weeks of treatment, versus vehicle, FIGS. 5A-5F): increases the amount of healthy myocardium after infarction
Average % Infarcted Myocardium ([2]; MI mice, high dose (10 mg/kg)): 7.68%
Average Left Ventricle Lumen Area ([2]; MI mice, high dose (10 mg/kg)): 75,061 AU
Average % Infarcted Myocardium ([2]; MI mice, low dose (1 mg/kg)): 21.79%
Average Left Ventricle Lumen Area ([2]; MI mice, low dose (1 mg/kg)): 170,789 AU
Average % Infarcted Myocardium ([2]; MI mice, medium dose (3 mg/kg)): 18.85%
Average Left Ventricle Lumen Area ([2]; MI mice, medium dose (3 mg/kg)): 72,474 AU
Adverse effects in healthy hearts (LV lumen area, infarcted myocardium) ([2]; sham mice, high dose): no adverse effects
Average Left Ventricle Lumen Area ([2]; sham mice, high dose (10 mg/kg)): 46,167 AU
β2-adrenergic activity (% Activity) [3]: 2%
β3-adrenergic activity relative to isoproterenol (% Activity) ([4]; 10 μM, HEK293 cells): 104%
Emax ([4]; HEK293, estimated by nonlinear least-squares regression, read-out: Emax (maximum response) at the β3-AR): 99.2%
EC50 ([4]; HEK293 cells expressing β3-ARs, cAMP, read-out: Mean (SEM) EC50 at the β3-AR): 2.13 nM
Emax (maximum response) at the β3-AR ([4]; estimated by nonlinear least-squares regression): ~100%
Potency at activating β3-ARs relative to mirabegron ([4]; ratio of mean EC50 values): approximately 5 times
Selectivity for activation of β3-AR over β2-AR and β1-AR [5]: > 9,000 fold
β1-adrenergic activity (% Activity) [6]: 0%
